Laboratory results from PMC3280956, “DOGS: Reaction-Driven de novo Design of Bioactive Compounds” (PLoS Computational Biology, 2012).

Columns and labels:
Trypsin = details: cited from earlier work
γ-secretase = γ-secretase (Homo sapiens, UniProt P49768); experiment: Aβ sandwich ELISA in supernatants of CHO cells overexpressing human APP and presenilin-1; format: cell-based; details: for Modulation of γ-secretase activity (type): Aβ38/40/42 ELISA, 0.1-40 μM
Protocol: One-step reactions yielded the desired products in both cases. […] Synthesized compounds were tested for their ability to modulate the γ-secretase product spectrum as previously described. CHO cells with stable overexpression of human APP and presenilin-1 were treated with increasing concentrations of 3 and 4. Subsequently, concentrations of secreted Aβ peptides were detected in cell supernatants by sandwich ELISA using C-terminus specific antibodies that distinguish between Aβ38, Aβ40, and Aβ42 peptide species. […] This pattern of inverse γ-secretase modulation has previously been observed, e.g. with derivatives of the non-steroidal anti-inflammatory drug indomethacin [35]. […] Compounds 3 and 4 can serve as tool compounds and – more importantly – as starting points for an optimization of the pharmacological profile by structural modification. […]
Figure S5. Modulation of γ-secretase activity by designed compounds 3 (A) and 4 (B). Both […]
higher levels of Aβ42. Concentrations of secreted Ab peptides were detected in cell supernatants by sandwich ELISA using C-terminus specific antibodies that distinguish between Aβ38, Aβ40, and Aβ42 peptide species as previously described.

κ opioid receptor = κ opioid receptor (Homo sapiens, UniProt P41145)
Sequence of κ opioid receptor (P41145 whole entry): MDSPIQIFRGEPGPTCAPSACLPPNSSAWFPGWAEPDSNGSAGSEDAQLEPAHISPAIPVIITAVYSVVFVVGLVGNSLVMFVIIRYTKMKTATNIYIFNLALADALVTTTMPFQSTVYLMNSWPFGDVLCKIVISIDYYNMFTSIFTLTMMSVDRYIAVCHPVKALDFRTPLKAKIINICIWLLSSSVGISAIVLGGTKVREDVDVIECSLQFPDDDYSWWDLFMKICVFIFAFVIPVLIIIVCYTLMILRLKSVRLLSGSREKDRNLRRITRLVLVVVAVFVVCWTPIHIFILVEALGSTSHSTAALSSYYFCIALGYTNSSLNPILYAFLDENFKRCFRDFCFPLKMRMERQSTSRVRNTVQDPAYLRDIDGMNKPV

other GPCRs in the panel = experiment: Cerep panel, other human GPCRs; format: cell-based; details: remaining GPCRs of the 30-receptor panel
hH3R = hH3R (Homo sapiens, UniProt Q9Y5N1); experiment: Competitive binding, displacement of [3H]Nα-methylhistamine at hH3R; details: averaged over four distinct tests
Sequence of hH3R (Q9Y5N1 whole entry): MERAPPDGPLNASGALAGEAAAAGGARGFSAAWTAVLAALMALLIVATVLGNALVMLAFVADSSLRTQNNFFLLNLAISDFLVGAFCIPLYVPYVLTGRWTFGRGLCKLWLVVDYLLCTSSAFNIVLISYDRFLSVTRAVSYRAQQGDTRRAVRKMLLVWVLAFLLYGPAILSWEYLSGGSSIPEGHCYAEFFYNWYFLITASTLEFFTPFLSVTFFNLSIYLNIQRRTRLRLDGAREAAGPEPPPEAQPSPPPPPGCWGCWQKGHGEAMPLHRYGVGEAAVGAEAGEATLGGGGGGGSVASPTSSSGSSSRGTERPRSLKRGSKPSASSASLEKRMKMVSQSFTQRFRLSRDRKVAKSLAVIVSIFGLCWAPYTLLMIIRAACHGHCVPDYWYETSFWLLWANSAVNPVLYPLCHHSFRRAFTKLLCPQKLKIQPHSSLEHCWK
Protocol: (§1) In order to test for the hypothesis that a combination of the features – as found in compound 7 – might lead to hH4R affinity, compound 7 was selected for synthesis and testing. […] Binding affinity of compound 7 was determined in a competitive binding assay by measuring displacement of radioactively labeled [^3H]histamine bound to hH4R [42]. Membrane preparations of insect Sf9 cells expressing hH4R together with G-protein subunits Gαi2 and Gβ1γ2 were performed to yield the protein. A similar assay was used to measure the activity on hH3R (reference ligand: [^3H]N ^α-methylhistamine).

δ2 opioid receptor = δ2 opioid receptor (Homo sapiens, UniProt P41143); experiment: Cerep GPCR panel, antagonistic effect on δ2 opioid receptor; format: cell-based; details: n = 2
Sequence of δ2 opioid receptor (P41143 whole entry): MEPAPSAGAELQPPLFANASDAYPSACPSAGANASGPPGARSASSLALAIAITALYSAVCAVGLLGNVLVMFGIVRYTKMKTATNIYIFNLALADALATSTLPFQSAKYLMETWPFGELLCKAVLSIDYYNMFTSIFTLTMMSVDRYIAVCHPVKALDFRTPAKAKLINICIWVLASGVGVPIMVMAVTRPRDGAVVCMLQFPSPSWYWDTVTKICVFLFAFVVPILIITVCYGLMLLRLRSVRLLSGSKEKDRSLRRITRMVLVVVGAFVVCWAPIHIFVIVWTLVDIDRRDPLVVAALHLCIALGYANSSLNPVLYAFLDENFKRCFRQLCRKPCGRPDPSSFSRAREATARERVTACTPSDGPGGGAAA

hH4R = target: T1, hH4R (Homo sapiens, UniProt Q9H3N8); experiment: Competitive binding, displacement of [3H]histamine, Sf9 membranes expressing hH4R; details: three measurements
T1 construct: made in house; host or cells: insect Sf9 cells (membrane preparations)
T1 sequence (Q9H3N8 whole entry): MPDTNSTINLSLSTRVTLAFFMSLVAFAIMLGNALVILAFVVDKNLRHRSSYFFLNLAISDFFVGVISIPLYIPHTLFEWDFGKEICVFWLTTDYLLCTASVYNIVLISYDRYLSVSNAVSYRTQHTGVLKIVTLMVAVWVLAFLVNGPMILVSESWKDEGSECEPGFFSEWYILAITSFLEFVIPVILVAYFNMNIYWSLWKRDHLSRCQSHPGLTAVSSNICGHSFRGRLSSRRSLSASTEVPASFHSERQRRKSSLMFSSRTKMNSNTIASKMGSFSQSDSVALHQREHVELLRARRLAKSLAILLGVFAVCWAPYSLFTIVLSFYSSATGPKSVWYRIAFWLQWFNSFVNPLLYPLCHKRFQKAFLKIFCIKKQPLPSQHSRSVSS
Protocol: as §1

5-HT1D receptor = 5-HT1D receptor (Homo sapiens, UniProt P28221); experiment: Cerep GPCR panel, antagonistic effect on 5-HT1D receptor; format: cell-based
Sequence of 5-HT1D receptor (P28221 whole entry): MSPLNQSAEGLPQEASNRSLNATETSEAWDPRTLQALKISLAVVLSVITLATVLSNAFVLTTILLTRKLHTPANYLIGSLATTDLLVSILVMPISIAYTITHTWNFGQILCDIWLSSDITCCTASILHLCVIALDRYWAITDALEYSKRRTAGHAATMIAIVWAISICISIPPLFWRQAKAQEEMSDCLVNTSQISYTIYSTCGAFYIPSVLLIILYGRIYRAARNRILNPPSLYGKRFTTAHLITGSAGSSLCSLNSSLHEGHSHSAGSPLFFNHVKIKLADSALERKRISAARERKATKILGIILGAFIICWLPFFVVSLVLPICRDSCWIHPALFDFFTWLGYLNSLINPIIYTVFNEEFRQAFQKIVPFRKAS

Trypsin (bovine) = target: Trypsin (bovine); parameters: method as in PMID 15771442; details: cited from earlier work
Thrombin = details: cited from earlier work

In the case of `CN(C)C(=O)COC(=O)Cc1ccc(OC(=O)c2ccc(NC(=N)N)cc2)cc1` [Camostat], the Ki (Trypsin) is listed as 0.0506 µM.
For `COc1cc(-n2c(C)ccc2C)c(OC)cc1NC(=O)c1ccccc1` [Compound 3], the “Modulation of γ-secretase activity (type)” value (γ-secretase) was “inverse modulators”, the Aβ38 levels (γ-secretase; secreted Aβ38, CHO cells, increasing concentrations) was “decrease” and the Aβ42 levels (γ-secretase; secreted Aβ42, CHO cells, increasing concentrations) was “dose-dependent increase”.
With `COc1ccc(N2CCN(C(=O)c3ccc(-c4cc(C(F)(F)F)ccc4Cl)o3)CC2)cc1` [Compound 4] the “Modulation of γ-secretase activity (type)” value (γ-secretase) was “inverse modulators”.
For `Clc1cccc(-c2cn(CCOCCN3CCNCC3)nn2)c1` [Compound 7], the “agonistic effect, % of the effect of the reference agonist U50488” value (κ opioid receptor) was 21%, the “response at other GPCRs in the panel” value (other GPCRs in the panel) was “only weak responses in the single digit or low double-digit percent range” and the Ki (hH3R) was 466 ± 209 µM. For the same compound, the “residual activity of the receptor” value (δ2 opioid receptor) was 76%, the Ki (hH4R) was 436 ± 137 µM and the “residual activity of the receptor” value (5-HT1D receptor; antagonistic effect, n = 2) was 62%.
For `CN[C@H](Cc1ccccc1)C(=O)N1CCC[C@H]1C(=O)N[C@H](C=O)CCCN=C(N)N` [Efegatran], the Ki (Trypsin (bovine)) is listed as 0.0091 µM and the Ki (Thrombin) is listed as 0.018 µM.
In the case of `N=C(N)Nc1ccc(C(=O)Oc2ccc(SCCN3C(=O)CCC3=O)cc2)cc1` [Patamostat], the IC50 (Trypsin) is given as 0.039 µM and the IC50 (Thrombin) is given as 1.9 µM.
In the case of `CC1=CCN(C(=O)C(Cc2cccc(C(=N)N)c2)NS(=O)(=O)c2ccc3c(c2)CN(C)CC3)C(C(=O)O)C1` (stereo not drawn) [UK-156406], the Ki (Trypsin) is given as 0.026 µM and the Ki (Thrombin) is given as 0.00046 µM.
Compound `CSc1ccc2c(c1)C(N1CCN(C)CC1)Cc1ccccc1S2` (stereo not drawn) [methiothepin, reference compound] has an IC50 (5-HT1D receptor; reference compound) of 1.1 µM.
